Measured values taken from ChEMBL document CHEMBL3046957, “Synthesis of new oxadiazole derivatives as anti-inflammatory, analgesic, and antimicrobial agents” (2013).

Legend:
Assay type in all cases: functional
Aspergillus niger [1] = test: Antifungal activity against Aspergillus niger assessed as growth inhibition at 100 ug/mL after 24 hr by cup-plate method; conditions: read-out: DIZ
Aspergillus niger [2] = test: Antifungal activity against Aspergillus niger assessed as growth inhibition at 50 ug/mL after 24 hr by cup-plate method; conditions: read-out: DIZ
Candida albicans [3] = test: Antifungal activity against Candida albicans assessed as growth inhibition at 100 ug/mL after 24 hr by cup-plate method; conditions: read-out: DIZ
Candida albicans [4] = test: Antifungal activity against Candida albicans assessed as growth inhibition at 50 ug/mL after 24 hr by cup-plate method; conditions: read-out: DIZ
Pseudomonas aeruginosa [5] = test: Antibacterial activity against Pseudomonas aeruginosa assessed as growth inhibition at 100 ug/mL after 24 to 48 hr by cup-plate method; conditions: read-out: DIZ
Pseudomonas aeruginosa [6] = test: Antibacterial activity against Pseudomonas aeruginosa assessed as growth inhibition at 50 ug/mL after 24 to 48 hr by cup-plate method; conditions: read-out: DIZ
Escherichia coli [7] = test: Antibacterial activity against Escherichia coli assessed as growth inhibition at 100 ug/mL after 24 to 48 hr by cup-plate method; conditions: read-out: DIZ
Bacillus subtilis [8] = test: Antibacterial activity against Bacillus subtilis assessed as growth inhibition at 100 ug/mL after 24 to 48 hr by cup-plate method; conditions: read-out: DIZ
Escherichia coli [9] = test: Antibacterial activity against Escherichia coli assessed as growth inhibition at 50 ug/mL after 24 to 48 hr by cup-plate method; conditions: read-out: DIZ
Bacillus subtilis [10] = test: Antibacterial activity against Bacillus subtilis assessed as growth inhibition at 50 ug/mL after 24 to 48 hr by cup-plate method; conditions: read-out: DIZ
Staphylococcus aureus [11] = test: Antibacterial activity against Staphylococcus aureus assessed as growth inhibition at 100 ug/mL after 24 to 48 hr by cup-plate method; conditions: read-out: DIZ
Staphylococcus aureus [12] = test: Antibacterial activity against Staphylococcus aureus assessed as growth inhibition at 50 ug/mL after 24 to 48 hr by cup-plate method; conditions: read-out: DIZ
Mus musculus [13] = test: Analgesic activity in Swiss albino Mus musculus (mouse) assessed as latency time of heat-induced paw licking/jumping behaviour at 10 mg/kg after 4 hr by Eddy's hot plate method (reference value: 4.57 +/- 0.11 secs)
Mus musculus [14] = test: Analgesic activity in Swiss albino Mus musculus (mouse) assessed as latency time of heat-induced paw licking/jumping behaviour at 10 mg/kg after 2 hr by Eddy's hot plate method (reference value: 4.86 +/- 0.18 secs)
Mus musculus [15] = test: Analgesic activity in Swiss albino Mus musculus (mouse) assessed as latency time of heat-induced paw licking/jumping behaviour at 10 mg/kg after 1 hr by Eddy's hot plate method (reference value: 4.74 +/- 0.21 secs)
Mus musculus [16] = test: Analgesic activity in Swiss albino Mus musculus (mouse) assessed as latency time of heat-induced paw licking/jumping behaviour at 10 mg/kg after 0.5 hr by Eddy's hot plate method (reference value: 4.17 +/- 0.04 secs)
Rattus norvegicus [17] = test: Anti-inflammatory activity in Wistar albino Rattus norvegicus (rat) assessed as inhibition of carrageenan-induced paw edema at 10 mg/kg, po administered 30 min prior to carrageenan challenge measured after 3 hr by plethysmometric analysis relative to untreated control
Rattus norvegicus [18] = test: Anti-inflammatory activity in Wistar albino Rattus norvegicus (rat) assessed as inhibition of carrageenan-induced paw edema at 10 mg/kg, po administered 30 min prior to carrageenan challenge measured after 2 hr by plethysmometric analysis relative to untreated control
Rattus norvegicus [19] = test: Anti-inflammatory activity in Wistar albino Rattus norvegicus (rat) assessed as inhibition of carrageenan-induced paw edema at 10 mg/kg, po administered 30 min prior to carrageenan challenge measured after 1.5 hr by plethysmometric analysis relative to untreated control
Rattus norvegicus [20] = test: Anti-inflammatory activity in Wistar albino Rattus norvegicus (rat) assessed as inhibition of carrageenan-induced paw edema at 10 mg/kg, po administered 30 min prior to carrageenan challenge measured after 1 hr by plethysmometric analysis relative to untreated control
Rattus norvegicus [21] = test: Anti-inflammatory activity in Wistar albino Rattus norvegicus (rat) assessed as inhibition of carrageenan-induced paw edema at 10 mg/kg, po administered 30 min prior to carrageenan challenge measured after 0.5 hr by plethysmometric analysis relative to untreated control

COc1ccc(F)cc1-c1cccc(-c2nn(CCOS(=O)(=O)c3ccc(F)cc3)c(=O)o2)c1
zone of inhibition at 100 µg/mL (Aspergillus niger [1]): 9 mm
zone of inhibition at 50 µg/mL (Aspergillus niger [2]): 5 mm
zone of inhibition at 100 µg/mL (Candida albicans [3]): 6 mm
zone of inhibition at 50 µg/mL (Candida albicans [4]): 5 mm
zone of inhibition at 100 µg/mL (Pseudomonas aeruginosa [5]): 15 mm
zone of inhibition at 50 µg/mL (Pseudomonas aeruginosa [6]): 10 mm
zone of inhibition at 100 µg/mL (Escherichia coli [7]): 16 mm
zone of inhibition at 100 µg/mL (Bacillus subtilis [8]): 20 mm
zone of inhibition at 50 µg/mL (Escherichia coli [9]): 12 mm
zone of inhibition at 50 µg/mL (Bacillus subtilis [10]): 15 mm
zone of inhibition at 100 µg/mL (Staphylococcus aureus [11]): 21 mm
zone of inhibition at 50 µg/mL (Staphylococcus aureus [12]): 15 mm
Time (Mus musculus [13]): 6.01 s
Time (Mus musculus [14]): 6.17 s
Time (Mus musculus [15]): 5.01 s
Time (Mus musculus [16]): 4.91 s
inhibition in vivo at 10 mg/kg (Rattus norvegicus [17]): 67%
inhibition in vivo at 10 mg/kg (Rattus norvegicus [18]): 63%
inhibition in vivo at 10 mg/kg (Rattus norvegicus [19]): 50%
inhibition in vivo at 10 mg/kg (Rattus norvegicus [20]): 40%
inhibition in vivo at 10 mg/kg (Rattus norvegicus [21]): 24%

COc1ccc(F)cc1-c1cccc(-c2nn(CCOS(=O)(=O)c3ccc(F)c(Cl)c3)c(=O)o2)c1
zone of inhibition at 100 µg/mL (Aspergillus niger [1]): 11 mm
zone of inhibition at 50 µg/mL (Aspergillus niger [2]): 9 mm
zone of inhibition at 100 µg/mL (Candida albicans [3]): 7 mm
zone of inhibition at 50 µg/mL (Candida albicans [4]): 8 mm
zone of inhibition at 100 µg/mL (Pseudomonas aeruginosa [5]): 18 mm
zone of inhibition at 50 µg/mL (Pseudomonas aeruginosa [6]): 17 mm
zone of inhibition at 100 µg/mL (Escherichia coli [7]): 19 mm
zone of inhibition at 100 µg/mL (Bacillus subtilis [8]): 22 mm
zone of inhibition at 50 µg/mL (Escherichia coli [9]): 13 mm
zone of inhibition at 50 µg/mL (Bacillus subtilis [10]): 20 mm
zone of inhibition at 100 µg/mL (Staphylococcus aureus [11]): 20 mm
zone of inhibition at 50 µg/mL (Staphylococcus aureus [12]): 13 mm
Time (Mus musculus [13]): 5.47 s
Time (Mus musculus [14]): 5.87 s
Time (Mus musculus [15]): 4.69 s
Time (Mus musculus [16]): 4.62 s
inhibition in vivo at 10 mg/kg (Rattus norvegicus [17]): 65%
inhibition in vivo at 10 mg/kg (Rattus norvegicus [18]): 62%
inhibition in vivo at 10 mg/kg (Rattus norvegicus [19]): 55%
inhibition in vivo at 10 mg/kg (Rattus norvegicus [20]): 42%
inhibition in vivo at 10 mg/kg (Rattus norvegicus [21]): 23%

O=C(O)Cc1ccccc1Nc1c(Cl)cccc1Cl [DICLOFENAC SODIUM]
inhibition in vivo at 10 mg/kg (Rattus norvegicus [17]): 90%
inhibition in vivo at 10 mg/kg (Rattus norvegicus [18]): 77%
inhibition in vivo at 10 mg/kg (Rattus norvegicus [19]): 65%
inhibition in vivo at 10 mg/kg (Rattus norvegicus [20]): 49%
inhibition in vivo at 10 mg/kg (Rattus norvegicus [21]): 35%

COC1=CC(=O)C[C@@H](C)[C@]12Oc1c(Cl)c(OC)cc(OC)c1C2=O [GRISEOFULVIN]
zone of inhibition at 100 µg/mL (Aspergillus niger [1]): 37 mm
zone of inhibition at 50 µg/mL (Aspergillus niger [2]): 22 mm
zone of inhibition at 100 µg/mL (Candida albicans [3]): 35 mm
zone of inhibition at 50 µg/mL (Candida albicans [4]): 20 mm

CC(C)=CCN1CCC2(C)c3cc(O)ccc3CC1C2C (centres undefined) [PENTAZOCINE]
Time (Mus musculus [13]): 7.85 s
Time (Mus musculus [14]): 8.06 s
Time (Mus musculus [15]): 5.93 s
Time (Mus musculus [16]): 5.58 s

CN[C@@H]1[C@H](O[C@H]2[C@H](O[C@H]3[C@H](O)[C@@H](O)[C@H](N=C(N)N)[C@@H](O)[C@@H]3N=C(N)N)O[C@@H](C)[C@]2(O)C=O)O[C@@H](CO)[C@H](O)[C@H]1O [STREPTOMYCIN]
zone of inhibition at 100 µg/mL (Pseudomonas aeruginosa [5]): 25 mm
zone of inhibition at 50 µg/mL (Pseudomonas aeruginosa [6]): 21 mm
zone of inhibition at 100 µg/mL (Escherichia coli [7]): 25 mm
zone of inhibition at 50 µg/mL (Escherichia coli [9]): 21 mm
